The text below walks through data of publication PMC6566782, “Prodrugs for Skin Delivery of Menahydroquinone-4, an Active Form of Vitamin K2(20), Could Overcome the Photoinstability and Phototoxicity of Vitamin K2(20)” (International Journal of Molecular Sciences, 2019).

The nature of data set [1]: Photostability in ethanol under artificial sunlight (12,000 lx), LC-MS/MS. Type of data set: physicochemical. The conditions noted are these: 1 µM in ethanol. As to the method: The relative irradiance of artificial sunlight at wavelengths of 300 to 800 nm is almost equal to that of natural sunlight, according to the manufacturer. […] MKH-SUC concentration decreased according to an apparent first order rate both with and without shading, although the rate of decrease was accelerated without shading. MKH-DMG and MKH-SUC were more photostable than MK-4 by ca. 50- and 3-fold, respectively.
Solutions of MK-4 and MKH derivatives in ethanol (1 µM) were irradiated with artificial sunlight (SOLAX 100 W XC-100 B, Seric Ltd., Tokyo, Japan) at 12,000 lx in quartz cells. Illuminance was measured using a digital luminometer (LX-1108, Mother Tool). Irradiation samples (1 µM in ethanol) were irradiated with artificial sunlight at 12,000 lx, and with monochromatic light (279, 341, 373, 404, and 435 nm) using a multi-wavelength irradiation spectrometer (MM 3, Bunkoukeiki Co., Ltd., Tokyo, Japan). Irradiation intensity was measured using an irradiation energy measurement power meter (MM 3, Bunkoukeiki Co., Ltd.).
LC-MS/MS was performed using an LCMS-8050 Liquid Chromatograph Mass Spectrometer (Shimadzu, Kyoto, Japan) and Shimadzu HPLC System (system controller (CBM-20A), pump (LD-20AD), degasser (DGU-20As), UV detector (SPD-20A), and auto injector (SIL-20AC HT)). Separations were performed on a CAPCELL PAK C18 UG120 (3 μm, 2.0 mm × 100 mm, Shiseido Co., Ltd., Tokyo, Japan) using a mobile phase of 10 mmol/L ammonium acetate and 0.1% acetic acid in methanol and water (97:3) at a flow rate of 0.4 mL/min. Column temperature was maintained at 40 °C. The mass spectrometer was equipped with an electrospray ionization and was run in positive ion mode. Identification and quantitation were based on MS/MS-multiple reaction monitoring mode using transition ions as follows: m/z 445 → 187 for the [M+H]^+ MK-4 adduct, m/z 445 → 187 for the [M + H]^+ chromenol adduct, 619 → 58 for the [M + H]^+ MKH-DMG adduct, m/z 532 → 58 for the [M + H]^+ MKH-mono-DMG adduct, m/z 664 → 187 for the [M + H]^+ MKH-SUC adduct, m/z 564 → 187 for the [M + H]^+ MKH-mono-SUC adduct, and m/z 461 → 81 for the [M + H]^+ MKO adduct.

Data set [2] can be described thus: Singlet oxygen generation assay (p-nitrosodimethylaniline-based ROS assay) after UVA irradiation. Format: physicochemical. The conditions noted are these: phosphate-buffered aqueous solution pH 7.4, UVA irradiation 0–15 J/cm^2. As to the method: It has been reported that singlet oxygen promotes the peroxidation of skin surface lipids, resulting in the induction of skin inflammation. Thus, we measured the irradiation intensity-dependent generation of singlet oxygen by MK-4, MKH-DMG, and MKH-SUC in phosphate-buffered aqueous solution after UVA irradiation using a p-nitrosodimethylaniline-based ROS assay (Figure 4).
MK-4 and MKH derivatives were dissolved in a phosphate buffer (NaPB, pH 7.4) containing 0.2% polyoxyethylene hydrogenated castor oil 40 (HCO 40, obtained as a gift sample from Nikko Chemicals Co., Ltd., Osaka, Japan), 2% dimethyl sulfoxide, and 0.1% glycerol. The solutions were treated according to the singlet oxygen assay method (The Japanese Center for the Validation of Alternative Methods, JaCVAM) and irradiated with UVA light from a CL-1000L UV Crosslinker (UVP, Upland, CA, USA). Absorbance was measured using an Infinite M200 PRO (Tecan Life Sciences, Zurich, Switzerland).

Data set [3] has as its system HaCaT cells. Briefly: Cell viability assay (CellTiter-Glo) 24 h after UVA irradiation. Type of data set: cell-based, Human. The conditions noted are these: 24 h after UVA irradiation 15 J/cm^2. As to the method: The in vitro phototoxicity of MK-4 and MKH derivatives were assessed by measuring the intracellular ROS generation and the viability of human epidermal keratinocyte cells (HaCaT) after UVA irradiation in the presence or absence of MK-4 and MKH derivatives. Intracellular ROS generation was determined using the cell permeable probe 2′,7′-dichlorofluorescein diacetate (DCFH-DA), which rapidly reacts with hydroxyl radicals. Cells without drug treatment or UVA irradiation were used as the control. ROS generation and cell viability are shown in Figure 5 and Figure 6, respectively.
HaCaT cells were seeded at 1.0 × 10^5 cells/well in 96-well plates and cultured overnight. Thereafter, cells were washed with PBS, and test compound solutions in PBS described above were added to each well and re-incubated for 1 h. After incubation, cells were irradiated with UVA at an irradiation intensity of 15 J/cm^2. After irradiation, cells were washed twice with PBS and replaced in culture medium. After 24 h incubation, cell viability was measured using a CellTiter-Glo® Luminescent Cell Viability Assay (Promega, Madison, WI, USA).
For orientation: In ATP-based viability assays light output follows the ATP content of the culture.

Data set [4] concerns HaCaT cells. Briefly: Intracellular MKO levels after treatment with sunlight-irradiated MK-4 and MKH derivatives. Type of data set: cell-based, Human. The conditions noted are these: 48 h treatment, compound irradiated with sunlight 12,000 lx for 3 h. As to the method: To confirm whether MKH prodrugs could successfully deliver MKH to dermal cells under sunlight, the intracellular level of MKO in HaCaT cells was determined following administration of MK-4 and MKH derivatives in the presence or absence of artificial sunlight irradiation. […] MKO levels were increased after administration of MKH-DMG and MKH-SUC in sunlight, but these were approximately 60% that of the cells treated with their respective compounds in shading conditions.
HaCaT cells were seeded at 5.0 × 10^4 cells/well in 24-well plates and allowed to attach for 48 h. Cells were cultured in medium containing 5 µM MK-4, MKH-DMG, or MKH-SUC, then medium was removed and cells were washed twice with PBS. Cells were collected in 500 µL of PBS and sonicated. Cell homogenates were combined with an equal volume of methanol and three times volume of n-hexane, vortexed for 2 min, and centrifuged at 1750× g for 10 min. The organic layer was evaporated under N2 gas. The residue was reconstituted with 20 μL of methanol, and subjected to LC-MS/MS, as described below. The protein concentration of the cell homogenate was determined using a BCA protein assay kit (Thermo Fisher Scientific, Waltham, MA, USA).
Solutions of 200 µM MK-4, MKH-DMG, or MKH-SUC in ethanol were irradiated with artificial sunlight for 3 h at 12,000 lx in quartz cells. After irradiation, ethanol was evaporated under N2 gas. […]

Turning to `CC(C)=CCC/C(C)=C/CC/C(C)=C/CC/C(C)=C/CC1=C(C)C(=O)c2ccccc2C1=O` [MK-4, menaquinone-4, reference compound], the “apparent first order rate constant (k) of degradation” value in data set [1] (artificial sunlight 12,000 lx, 25 °C) turned out to be 8.239 h⁻¹. For the same compound, the “concentration change under shading” value in data set [1] (shading, 25 °C) is “unchanged under shading”. In addition, the main degradation product entry in data set [1] (sunlight irradiation (MKH-SUC also under shading)) is “MK-4 chromenol”. Also, the half-life at 1 µM in data set [1] (ethanol solution in quartz cells, artificial sunlight 12,000 lx, 25 °C, read-out: half-life (t1/2) of degradation (converted)) was 5.04 min. In addition, the singlet oxygen generation result in data set [2] is “increased formation of singlet oxygen in an irradiation energy-dependent manner”. Besides, in the data set with HaCaT cells [3], the cell viability entry was “decreased dose-dependently”. Besides, the “intracellular MKO level after sunlight irradiation compared to shade” value in the data set on HaCaT cells [4] is listed as “seriously reduced”.
